Drawing on patent US9115137B2, “2,3,4,5-tetrahydro-1H-pyrido[4,3-B]indole compounds and methods of use thereof” (priority 2008, dated 2015), this text covers inhibition for 20 compounds.

The target in test [1] is T1, human recombinant histamine H2 receptor (Homo sapiens, UniProt P25021).
T1 construct: expressed in transfected cells; host or cells: CHO-K1 cells
In words: Histamine H2 radioligand binding ([125I]aminopotentidine). The conditions noted are these: compound at 1 μM; CHO K1 cells; read-out: Histamine Binding (1 μM) H2, percent inhibition of specific binding. How it is done:
To evaluate in radioligand binding assays the activity of compounds of the invention, human recombinant histamine H2 receptor expressed in Chinese hamster ovary (CHO) K1 cells (Ruat, M., Proc. Natl. Acad. Sci. USA. 87(5):1658, 1990) in a 50 mM Phosphate buffer, pH 7.4 was used. Compounds of the invention were incubated with 0.1 nM [^125I]aminopotentidine for 120 minutes at 25° C. Non-specific binding was estimated in the presence of 3 μM Tiotidine. Receptor proteins were filtered and washed, the filters were then counted to determine [^125I]Aminopotentidine specifically bound. Compounds were screened at 1 μM, using 1% DMSO as vehicle. Biochemical assay results are presented as the percent inhibition of specific binding in Table 5.

Test [2] concerns the target T2, human recombinant adrenergic α2B receptor (Homo sapiens, UniProt P18089).
T2 construct: expressed in transfected cells; host or cells: CHO-K1 cells
T2 sequence (P18089 1-450): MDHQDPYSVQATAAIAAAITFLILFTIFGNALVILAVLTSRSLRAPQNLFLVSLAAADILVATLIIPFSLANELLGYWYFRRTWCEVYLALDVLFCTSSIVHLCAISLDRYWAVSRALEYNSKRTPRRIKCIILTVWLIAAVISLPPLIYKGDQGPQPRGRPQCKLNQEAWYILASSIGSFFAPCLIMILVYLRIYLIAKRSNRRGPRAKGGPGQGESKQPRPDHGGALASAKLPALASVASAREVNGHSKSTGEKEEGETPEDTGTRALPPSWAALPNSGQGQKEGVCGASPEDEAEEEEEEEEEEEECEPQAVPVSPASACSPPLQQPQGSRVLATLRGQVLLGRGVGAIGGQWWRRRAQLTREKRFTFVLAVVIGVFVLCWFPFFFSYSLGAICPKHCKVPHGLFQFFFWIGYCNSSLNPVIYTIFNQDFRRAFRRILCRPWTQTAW
The test is described as follows: Adrenergic α2B radioligand binding ([3H]Rauwolscine). The conditions noted are these: compound at 1 μM; CHO-K1 cells; read-out: Adrenergic (1 μM) α2B, percent inhibition of specific binding. How it is done:
To evaluate in radioligand binding assays the activity of compounds of the invention, human recombinant adrenergic α2B receptor expressed in Chinese hamster ovary (CHO-K1) cells (Uhlen S et al. Eur. J. Pharmacol. 343(1):93, 1998) in a modified Tris-HCl buffer (50 mM Tris-HCl, pH 7.4, 12.5 mM MgCl2, 1 mM EDTA, 0.2% BSA) was used. Compounds of the invention were incubated with 2.5 nM [3H]Rauwolscine for 60 minutes at 25° C. Non-specific binding was estimated in the presence of 10 μM Prozosin. Receptor proteins were filtered and washed, the filters were then counted to determine [^3H]Rauwolscine specifically bound. Compounds were screened at 1 μM or lower, using 1% DMSO as vehicle. Biochemical assay results are presented as the percent inhibition of specific binding in Table 6.

Test [3] has as its target T3, human recombinant adrenergic α1D receptor (Homo sapiens, UniProt P25100).
T3 construct: expressed in transfected cells; host or cells: HEK-293 cells
T3 sequence (P25100 1-572): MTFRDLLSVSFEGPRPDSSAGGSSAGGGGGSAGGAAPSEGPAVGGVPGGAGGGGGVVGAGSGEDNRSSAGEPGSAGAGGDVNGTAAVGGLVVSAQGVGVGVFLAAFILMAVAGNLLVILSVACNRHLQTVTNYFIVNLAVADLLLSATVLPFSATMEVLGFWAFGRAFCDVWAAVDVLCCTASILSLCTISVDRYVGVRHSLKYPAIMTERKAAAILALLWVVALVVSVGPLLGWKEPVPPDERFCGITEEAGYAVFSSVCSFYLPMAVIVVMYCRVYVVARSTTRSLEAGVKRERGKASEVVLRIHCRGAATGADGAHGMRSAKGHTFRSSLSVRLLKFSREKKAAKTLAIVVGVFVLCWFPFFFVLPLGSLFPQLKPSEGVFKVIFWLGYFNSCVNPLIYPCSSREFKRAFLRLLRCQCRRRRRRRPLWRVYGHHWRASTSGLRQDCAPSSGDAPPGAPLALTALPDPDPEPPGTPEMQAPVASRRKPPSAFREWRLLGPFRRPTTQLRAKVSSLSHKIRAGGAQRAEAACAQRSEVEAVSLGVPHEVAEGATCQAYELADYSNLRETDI
In words: Adrenergic α1D radioligand binding ([3H]Prozosin). Particulars: compound at 1 μM; HEK-293 cells; read-out: Adrenergic (1 μM) α1D, percent inhibition of specific binding. How it is done:
To evaluate in radioligand binding assays the activity of compounds of the invention, human recombinant adrenergic α1D receptor expressed in human embryonic kidney (HEK-293) cells (Kenny, B. A. et al. Br. J. Pharmacol. 115(6):981, 1995) in a 50 mM Tris-HCl buffer, pH 7.4, was used. Compounds of invention were incubated with 0.6 nM [^3H]Prozosin for 60 minutes at 25° C. Non-specific binding was estimated in the presence of 10 μM phentolamine. Receptor proteins were filtered and washed, the filters were then counted to determine [^3H]Prozosin specifically bound. Compounds were screened at 1 μM or lower, using 1% DMSO as vehicle. Biochemical assay results are presented as the percent inhibition of specific binding in Table 6.

T1 sequence (P25021 whole entry): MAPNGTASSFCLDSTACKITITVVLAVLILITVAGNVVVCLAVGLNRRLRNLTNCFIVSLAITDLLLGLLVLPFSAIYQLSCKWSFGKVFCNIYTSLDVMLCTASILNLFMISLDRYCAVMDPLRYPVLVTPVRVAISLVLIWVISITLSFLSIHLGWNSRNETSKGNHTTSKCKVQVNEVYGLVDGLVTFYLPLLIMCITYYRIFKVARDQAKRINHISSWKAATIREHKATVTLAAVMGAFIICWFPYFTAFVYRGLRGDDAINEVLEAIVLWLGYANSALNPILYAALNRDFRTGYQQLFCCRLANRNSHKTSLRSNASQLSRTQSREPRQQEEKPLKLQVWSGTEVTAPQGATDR

One may read the inhibition as the change of the read-out against control, counted positive when it falls. Consider `CCOC(=O)CCCn1c2c(c3cc(C)ccc31)CN(C)CC2` [Compound 5, ethyl 4-(1,2,3,4-tetrahydro-2,8-dimethylpyrido[4,3-b]indol-5-yl)butanoate], for which the inhibition at 1 µM in test [1] came to 48%; in test [2], 98%; in test [3], 70%.

`CCNC(=O)CCCn1c2c(c3cc(C)ccc31)CN(C)CC2` [Compound 6, N-ethyl-4-(1,2,3,4-tetrahydro-2,8-dimethylpyrido[4,3-b]indol-5-yl)butanamide]: the inhibition at 1 µM in test [1] was determined as 0%; in test [2] it was 36%; in test [3], 0%.

Take `Cc1ccc2c(c1)c1c(n2CCNC(=O)OCC(Cl)(Cl)Cl)CCN(C)C1` [Compound 8, 2,2,2-trichloroethyl 2-(1,2,3,4-tetrahydro-2,8-dimethylpyrido[4,3-b]indol-5-yl)ethylcarbamate]: the inhibition at 1 µM in test [1] worked out at 74%; in test [2], 102%; in test [3], 72%.

As for `Cc1ccc2c(c1)c1c(n2CCNC(=O)C2CCCNC2)CCN(C)C1` (stereo not drawn) [Compound 9, N-(2-(1,2,3,4-tetrahydro-2,8-dimethylpyrido[4,3-b]indol-5-yl)ethyl)piperidine-3-carboxamide], the inhibition at 1 µM in test [1] is -44%; in test [2], 25%; in test [3] it was 11%.

As for `CCOC(=O)Cn1c2c(c3cc(Cl)ccc31)CN(C)CC2` [Compound 10, ethyl 2-(8-chloro-1,2,3,4-tetrahydro-2-methylpyrido[4,3-b]indol-5-yl)acetate], the values for the inhibition at 1 µM in test [1], in test [2] and in test [3] were 28%, 71% and 50%, respectively.

Turning to `CC(C)OC(=O)Cn1c2c(c3cc(Cl)ccc31)CN(C)CC2` [Compound 11, isopropyl 2-(8-chloro-1,2,3,4-tetrahydro-2-methylpyrido[4,3-b]indol-5-yl)acetate], the inhibition at 1 µM in test [1] came out at 7%; in test [2], 69%; in test [3], 38%.

`CN1CCc2c(c3cc(Cl)ccc3n2CC(=O)OC(C)(C)C)C1` [Compound 12, tert-butyl 2-(8-chloro-1,2,3,4-tetrahydro-2-methylpyrido[4,3-b]indol-5-yl)acetate]: the inhibition at 1 µM in test [1] was found to be 40%; in test [2] it was 45%; in test [3], 13%.

Take `CN1CCc2c(c3cc(Cl)ccc3n2CC(=O)OCc2ccccc2)C1` [Compound 13, benzyl 2-(8-chloro-1,2,3,4-tetrahydro-2-methylpyrido[4,3-b]indol-5-yl)acetate]: the inhibition at 1 µM in test [1] amounted to 51%; in test [2], 97%; in test [3], 55%.

Regarding `CN1CCc2c(c3cc(Cl)ccc3n2CC(=O)OCC2CCCCC2)C1` [Compound 14, cyclohexylmethyl 2-(8-chloro-1,2,3,4-tetrahydro-2-methylpyrido[4,3-b]indol-5-yl)acetate], the inhibition at 1 µM in test [1] came out at 89%; in test [2] it was 103%; in test [3] it was 72%.

As for `CN1CCc2c(c3cc(Cl)ccc3n2CC(=O)OC2CCCC2)C1` [Compound 15], the inhibition at 1 µM in test [1] amounted to 47%; in test [2] it was 95%; in test [3] it was 58%.

Regarding `CC(C)OC(=O)CCn1c2c(c3cc(Cl)ccc31)CN(C)CC2` [Compound 17, isopropyl 3-(8-chloro-1,2,3,4-tetrahydro-2-methylpyrido[4,3-b]indol-5-yl)propanoate], the inhibition at 1 µM was 64% in test [1], 106% in test [2] and 73% in test [3].

Consider `CN1CCc2c(c3cc(Cl)ccc3n2CCC(=O)OCc2ccccc2)C1` [Compound 19, benzyl 3-(8-chloro-1,2,3,4-tetrahydro-2-methylpyrido[4,3-b]indol-5-yl)propanoate], for which the inhibition at 1 µM in test [1] was 81%; in test [2], 106%; in test [3], 83%.

For the compound `CN1CCc2c(c3cc(Cl)ccc3n2CCC(=O)OCC2CCCCC2)C1` [Compound 20, cyclohexylmethyl 3-(8-chloro-1,2,3,4-tetrahydro-2-methylpyrido[4,3-b]indol-5-yl)propanoate], the inhibition at 1 µM in test [1] turned out to be 93%; in test [2] it was 103%; in test [3] it was 90%.

Regarding `CN1CCc2c(c3cc(Cl)ccc3n2CCC(=O)OC2CCCC2)C1` [Compound 21, cyclopentyl 3-(8-chloro-1,2,3,4-tetrahydro-2-methylpyrido[4,3-b]indol-5-yl)propanoate], the results for the inhibition at 1 µM in test [1], in test [2] and in test [3] were 82%, 103% and 88%, respectively.

On to `CCNC(=O)Cn1c2c(c3cc(C)ccc31)CN(C)CC2` [Compound 22, N-ethyl-2-(1,2,3,4-tetrahydro-2,8-dimethylpyrido[4,3-b]indol-5-yl)acetamide], for which the inhibition at 1 µM in test [1] was 11%; in test [2] it was 58%; in test [3] it was 23%.

In the case of `Cc1ccc2c(c1)c1c(n2CC(=O)NC(C)C)CCN(C)C1` [Compound 23, 2-(1,2,3,4-tetrahydro-2,8-dimethylpyrido[4,3-b]indol-5-yl)-N-isopropylacetamide], the inhibition at 1 µM came out at 1% in test [1], 18% in test [2] and 15% in test [3].

On to `Cc1ccc2c(c1)c1c(n2CC(=O)NC(C)(C)C)CCN(C)C1` [Compound 24, N-tert-butyl-2-(1,2,3,4-tetrahydro-2,8-dimethylpyrido[4,3-b]indol-5-yl)acetamide], for which the inhibition at 1 µM in test [1] is 5%; in test [2] it was 13%; in test [3], -4%.

Consider `Cc1ccc2c(c1)c1c(n2CC(=O)NCc2ccccc2)CCN(C)C1` [Compound 25, N-benzyl-2-(1,2,3,4-tetrahydro-2,8-dimethylpyrido[4,3-b]indol-5-yl)acetamide], for which the inhibition at 1 µM in test [1] is 9%; in test [2], 38%; in test [3], 22%.

For the compound `Cc1ccc2c(c1)c1c(n2CC(=O)NCC2CCCCC2)CCN(C)C1` [Compound 26, N-(cyclohexylmethyl)-2-(1,2,3,4-tetrahydro-2,8-dimethylpyrido[4,3-b]indol-5-yl)acetamide], the values for the inhibition at 1 µM in test [1], in test [2] and in test [3] were 22%, 45% and 32%, respectively.

Take `CN1CCc2c(c3cc(Cl)ccc3n2CC(=O)NC2CCCC2)C1` [Compound 27, 2-(8-chloro-1,2,3,4-tetrahydro-2-methylpyrido[4,3-b]indol-5-yl)-N-cyclopentylacetamide]: the figures for the inhibition at 1 µM in test [1], in test [2] and in test [3] were 5%, 35% and 18%, respectively.
